Laboratory results as given in US9481676B2, “Azepino[4,5-B]indoles and methods of use” (Medivation Technologies, Inc., priority 2008, dated 2016).

Columns and labels:
[1] = target: T1, human recombinant adrenergic α2A receptor (Homo sapiens, UniProt P08913); test: Adrenergic alpha2A radioligand binding ([3H]MK-912); conditions: compound at 1 μM; read-out: Adrenergic (1 μM) α2A, percent inhibition of specific binding
T1 construct: expressed in transfected cells; host or cells: insect Sf9 cells
T1 sequence (P08913 1-465): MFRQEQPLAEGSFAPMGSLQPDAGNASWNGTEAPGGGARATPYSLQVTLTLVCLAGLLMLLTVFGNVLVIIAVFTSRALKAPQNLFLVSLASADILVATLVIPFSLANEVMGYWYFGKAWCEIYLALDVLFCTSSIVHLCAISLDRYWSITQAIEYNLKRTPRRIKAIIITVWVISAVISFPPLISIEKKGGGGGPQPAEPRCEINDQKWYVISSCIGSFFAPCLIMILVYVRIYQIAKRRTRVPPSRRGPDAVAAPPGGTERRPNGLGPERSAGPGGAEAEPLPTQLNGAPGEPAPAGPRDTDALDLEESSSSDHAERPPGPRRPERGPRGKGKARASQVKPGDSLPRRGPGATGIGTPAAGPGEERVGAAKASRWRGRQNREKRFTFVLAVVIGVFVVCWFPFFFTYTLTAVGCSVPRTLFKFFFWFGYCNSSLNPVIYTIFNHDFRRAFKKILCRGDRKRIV
Outline: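 Membranes of Sf9 cells expressing human recombinant α2A receptor were incubated with compound and 1 nM [3H]MK-912 for 60 min at 25 °C in 50 mM Tris-HCl pH 7.4, 12.5 mM MgCl2, 2 mM EDTA. Nonspecific binding: 10 μM WB-4101.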

[2] = target: T2, human recombinant dopamine D2L receptor (Homo sapiens, UniProt P14416); test: Dopamine D2L radioligand binding ([3H]Spiperone); conditions: compound at 1 μM; read-out: Dopamine (1 μM) D2L, percent inhibition of specific binding
T2 construct: expressed in transfected cells; host or cells: CHO cells
Outline: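 Binding measured by filtration and counting, reported as % inhibition of specific [3H]spiperone binding (0.16 nM tracer; 10 μM haloperidol for nonspecific). Compounds tested at ≤1 μM in 1% DMSO for 120 min at 25° C against CHO-expressed human D2L in pH 7.4 Tris-HCl buffer.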

[3] = target: T3, human recombinant serotonin (5-Hydroxytryptamine) 5-HT2C receptor (Homo sapiens, UniProt P28335); test: Serotonin 5-HT2C radioligand binding ([3H]Mesulergine); conditions: compound at 1 μM; read-out: Serotonin (1 μM) 5-HT2C, percent inhibition of specific binding
T3 construct: expressed in transfected cells; host or cells: CHO-K1 cells
T3 sequence (P28335 33-458): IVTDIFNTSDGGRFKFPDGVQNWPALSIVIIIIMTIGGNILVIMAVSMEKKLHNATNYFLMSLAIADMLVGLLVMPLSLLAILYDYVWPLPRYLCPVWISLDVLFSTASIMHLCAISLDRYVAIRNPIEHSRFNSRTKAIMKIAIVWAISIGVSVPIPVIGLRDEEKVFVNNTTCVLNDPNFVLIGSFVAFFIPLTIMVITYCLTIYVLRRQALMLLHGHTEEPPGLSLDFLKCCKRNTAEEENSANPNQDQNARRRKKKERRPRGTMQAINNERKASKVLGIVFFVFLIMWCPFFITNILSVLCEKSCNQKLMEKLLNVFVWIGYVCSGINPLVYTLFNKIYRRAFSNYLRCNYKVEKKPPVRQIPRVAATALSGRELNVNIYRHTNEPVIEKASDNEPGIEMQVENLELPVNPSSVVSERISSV
Outline: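 Membranes from CHO-K1 cells expressing human 5-HT2C, incubated with 1 nM [3H]mesulergine for 60 min at 25 °C in 50 mM Tris-HCl pH 7.4 with ascorbic acid and pargyline.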

[4] = target: T4, human recombinant serotonin (5-Hydroxytryptamine) 5-HT6 receptor (Homo sapiens, UniProt P50406); test: Serotonin 5-HT6 radioligand binding ([3H]LSD); conditions: compound at 1 μM; read-out: Serotonin (1 μM) 5-HT6, percent inhibition of specific binding
T4 construct: expressed in transfected cells; host or cells: human HeLa cells
Outline: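 Human recombinant 5-HT6 receptor from HeLa cells incubated with 1.5 nM [3H]LSD for 120 min at 37° C in 50 mM Tris-HCl pH 7.4, 150 mM NaCl, 2 mM ascorbic acid, 0.001% BSA. Nonspecific binding defined with 5 μM serotonin; bound ligand counted after filtration.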

T4 sequence (P50406 whole entry): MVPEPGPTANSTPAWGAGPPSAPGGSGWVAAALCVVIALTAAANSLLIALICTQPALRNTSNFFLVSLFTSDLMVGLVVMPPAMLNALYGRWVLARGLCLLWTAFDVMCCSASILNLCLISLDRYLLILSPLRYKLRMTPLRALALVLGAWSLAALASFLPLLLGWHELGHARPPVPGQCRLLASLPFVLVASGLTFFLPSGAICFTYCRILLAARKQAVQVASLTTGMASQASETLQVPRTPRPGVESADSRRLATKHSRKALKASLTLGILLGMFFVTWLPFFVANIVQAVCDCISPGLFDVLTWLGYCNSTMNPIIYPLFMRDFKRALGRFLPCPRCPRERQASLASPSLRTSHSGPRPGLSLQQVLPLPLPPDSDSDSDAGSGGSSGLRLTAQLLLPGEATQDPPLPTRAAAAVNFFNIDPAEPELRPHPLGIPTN
T2 sequence (P14416 whole entry): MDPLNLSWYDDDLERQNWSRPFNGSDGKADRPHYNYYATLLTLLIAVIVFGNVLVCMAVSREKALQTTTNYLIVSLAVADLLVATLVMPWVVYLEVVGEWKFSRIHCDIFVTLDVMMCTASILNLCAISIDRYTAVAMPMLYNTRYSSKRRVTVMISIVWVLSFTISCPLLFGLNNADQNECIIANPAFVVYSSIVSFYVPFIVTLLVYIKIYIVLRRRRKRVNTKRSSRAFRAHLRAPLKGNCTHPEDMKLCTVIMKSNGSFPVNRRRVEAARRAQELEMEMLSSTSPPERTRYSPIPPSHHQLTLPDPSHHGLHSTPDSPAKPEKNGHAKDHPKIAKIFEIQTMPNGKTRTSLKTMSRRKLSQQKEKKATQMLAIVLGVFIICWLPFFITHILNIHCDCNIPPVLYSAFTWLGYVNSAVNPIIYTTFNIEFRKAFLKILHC

Row | Structure (SMILES) | inhibition at 1 µM [1] | inhibition at 1 µM [2] | inhibition at 1 µM [3] | inhibition at 1 µM [4]
1 | CN1CCc2c(n(C#Cc3ccc(Cl)cc3)c3ccc(Cl)cc23)CC1 [Compound No. 282, 9-chloro-6-((4-chlorophenyl)ethynyl)-3-methyl-1,2,3,4,5,6-hexahydroazepino[4,5-b]indole] | 95% | 1% | 103% | 71%
2 | Cc1ccc2c(c1)c1c(n2C(=O)Cc2ccc(F)cc2)CCN(C)CC1 [Compound No. 285, 1-(3,9-dimethyl-2,3,4,5-tetrahydroazepino[4,5-b]indol-6(1H)-yl)-2-(4-fluorophenyl) ethanone] | 91% | 21% | 99% | 94%
